Results taken from ChEMBL document CHEMBL3596130 (Bioorg Med Chem Lett, 2015).
Square brackets hold non-standard residues; d marks the D form. Peptide text beside a SMILES is read from it. * marks the point of attachment. Tyr(Nα,Nα-allyl2) = C=CCN(CC=C)[C@@H](Cc1ccc(O)cc1)C(=O)*; Aib = CC(C)(N)C(=O)O

Legend:
[1] = target: Mu-type opioid receptor (Homo sapiens, UniProt P35372); assay: Displacement of [3H]DAMGO from human MOR expressed in CHO cells; format: cell-based
[2] = target: T1, Delta-type opioid receptor (Homo sapiens, UniProt P41143); assay: Inverse agonist activity at human DOR expressed in CHO cell membranes by [35S]GTPgammaS binding assay; format: functional
[3] = target: T1, Delta-type opioid receptor; assay: Inverse agonist activity at human DOR expressed in CHO cell membranes by [35S]GTPgammaS binding assay relative to control; format: functional
[4] = target: T1, Delta-type opioid receptor; assay: Displacement of [3H]DPDPE from human DOR expressed in CHO cells; format: cell-based
[5] = organism: Homo sapiens; assay: Selectivity index, ratio of Ki for human MOR to Ki for human DOR
[6] = organism: Homo sapiens; assay: Selectivity index, ratio of Ki for human KOR to Ki for human DOR
[7] = target: Kappa-type opioid receptor (Homo sapiens, UniProt P41145); assay: Displacement of [3H]U-69,593 from human KOR expressed in CHO cells; format: cell-based
Sequence of Kappa-type opioid receptor (P41145 whole entry): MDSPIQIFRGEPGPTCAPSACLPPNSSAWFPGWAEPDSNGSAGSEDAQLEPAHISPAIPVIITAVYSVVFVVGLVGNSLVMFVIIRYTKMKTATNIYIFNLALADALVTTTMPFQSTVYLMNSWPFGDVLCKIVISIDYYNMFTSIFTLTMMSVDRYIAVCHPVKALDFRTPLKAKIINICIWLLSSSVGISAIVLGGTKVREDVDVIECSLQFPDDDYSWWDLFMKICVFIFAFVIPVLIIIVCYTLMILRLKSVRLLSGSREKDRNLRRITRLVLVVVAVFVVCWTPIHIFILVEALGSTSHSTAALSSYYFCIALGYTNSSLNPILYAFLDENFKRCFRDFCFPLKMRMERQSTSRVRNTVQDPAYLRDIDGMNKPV

Sequence of Mu-type opioid receptor (P35372 whole entry): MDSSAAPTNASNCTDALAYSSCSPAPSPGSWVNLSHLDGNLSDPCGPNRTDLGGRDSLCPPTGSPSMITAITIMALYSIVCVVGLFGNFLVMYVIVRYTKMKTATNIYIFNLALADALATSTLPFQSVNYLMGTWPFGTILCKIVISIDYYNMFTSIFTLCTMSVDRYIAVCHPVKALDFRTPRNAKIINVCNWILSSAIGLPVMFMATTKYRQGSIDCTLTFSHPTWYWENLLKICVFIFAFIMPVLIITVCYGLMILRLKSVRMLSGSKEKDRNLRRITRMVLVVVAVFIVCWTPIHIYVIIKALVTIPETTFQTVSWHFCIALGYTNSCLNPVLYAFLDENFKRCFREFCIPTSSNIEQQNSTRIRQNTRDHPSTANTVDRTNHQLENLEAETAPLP
T1 sequence (P41143 whole entry): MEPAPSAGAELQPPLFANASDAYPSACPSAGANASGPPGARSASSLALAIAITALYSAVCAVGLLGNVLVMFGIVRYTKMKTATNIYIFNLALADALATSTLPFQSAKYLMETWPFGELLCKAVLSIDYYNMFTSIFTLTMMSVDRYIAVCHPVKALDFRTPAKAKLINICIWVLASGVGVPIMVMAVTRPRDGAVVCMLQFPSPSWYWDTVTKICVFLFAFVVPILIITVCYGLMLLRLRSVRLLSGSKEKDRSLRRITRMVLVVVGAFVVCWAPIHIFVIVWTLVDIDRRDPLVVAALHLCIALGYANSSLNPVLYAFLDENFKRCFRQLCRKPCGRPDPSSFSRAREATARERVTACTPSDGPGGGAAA

Row | Structure (SMILES) | Ki [1] | EC50 [2] | Emax [3] | Ki [4] | Ratio Ki [5] | Ratio Ki [6] | Ki [7]
1 | Oc1ccc2c3c1O[C@H]1c4[nH]c5ccccc5c4C[C@@]4(O)[C@@H](C2)N(CCF)CC[C@]314 | 675 nM | 220 nM | -38.1% | 1.94 nM | 348 | 204 | 397 nM
2 | Oc1ccc2c3c1O[C@H]1c4nc5ccccc5cc4C[C@@]4(O)[C@@H](C2)N(CC2CC2)CC[C@]314 | 20.8 nM | 9.78 nM | 32.4% | 0.407 nM | 51.1 | 27.1 | 11 nM
3 | Oc1ccc2c3c1O[C@H]1c4nc5ccccc5cc4C[C@@]4(O)[C@@H](C2)N(CCF)CC[C@]314 | 422 nM | 24.7 nM | 27.1% | 5.58 nM | 75.7 | 153 | 854 nM
4 | Oc1ccc2c3c1O[C@H]1c4[nH]c5ccccc5c4C[C@@]4(O)[C@@H](C2)N(CC(F)(F)F)CC[C@]314 | > 1000 nM | 45.5 nM | -44.8% | 134 nM | – | – | > 1000 nM
5 | CCCN1CC[C@]23c4c5ccc(O)c4O[C@H]2c2nc4ccccc4cc2C[C@@]3(O)[C@H]1C5 | 123 nM | 5.85 nM | 62.4% | 2.77 nM | 44.5 | 113 | 313 nM
6 | Oc1ccc2c3c1O[C@H]1c4[nH]c5ccccc5c4C[C@@]4(O)[C@@H](C2)N(CC(F)F)CC[C@]314 | > 1000 nM | 17.2 nM | -48.6% | 15.5 nM | – | – | > 1000 nM
7 | CCN1CC[C@]23c4c5ccc(O)c4O[C@H]2c2nc4ccccc4cc2C[C@@]3(O)[C@H]1C5 | 670 nM | 6.71 nM | 41.2% | 8.89 nM | 75.4 | 53.7 | 477 nM
8 | CCN1CC[C@]23c4c5ccc(O)c4O[C@H]2c2[nH]c4ccccc4c2C[C@@]3(O)[C@H]1C5 | 788 nM | – | – | 2.71 nM | 291 | 172 | 468 nM
9 | C=CCN(CC=C)[C@@H](Cc1ccc(O)cc1)C(=O)NC(C)(C)C(=O)NC(C)(C)C(=O)N[C@@H](Cc1ccccc1)C(=O)N[C@@H](CC(C)C)C(=O)O ({Tyr(Nα,Nα-allyl2)}-[Aib][Aib]FL-OH) | – | 116 nM | -100% | – | – | – | –
10 | Oc1ccc2c3c1O[C@H]1c4nc5ccccc5cc4C[C@@]4(O)[C@@H](C2)N(CC(F)(F)F)CC[C@]314 | > 1000 nM | – | – | 37.8 nM | – | – | > 1000 nM
11 | Oc1ccc2c3c1O[C@H]1c4nc5ccccc5cc4C[C@@]4(O)[C@@H](C2)N(CC(F)F)CC[C@]314 | > 1000 nM | – | – | 18.2 nM | – | – | > 1000 nM
12 | CCCN1CC[C@]23c4c5ccc(O)c4O[C@H]2c2[nH]c4ccccc4c2C[C@@]3(O)[C@H]1C5 | 133 nM | – | – | 1.11 nM | 120 | 66.9 | 74.3 nM
